Source: US12624038B2, “Molecules and methods related to treatment of uncontrolled cellular proliferation” (ST. JUDE CHILDREN'S RESEARCH HOSPITAL, priority 2019, dated 2026)

System: JAK family kinases and GSPT1
Assay: In vivo pharmacodynamics, immunoblotting for Janus kinases and GSPT1 in engrafted leukemic cells
Design: species or system mouse
Conditions: 10, 30 and 100 mg/kg i.p., 2 daily doses
Experimental: Cells were washed twice with ice-cold PBS and lysed in RIPA lysis buffer (Sigma) freshly supplemented with Halt™ Protease Inhibitor Cocktail (ThermoFisher) for 15 minutes on ice. The cell pellet was removed by centrifugation at 13,000 g at 4° C. for 15 minutes. Protein concentration was measured by BCA assay (Thermo Fisher Scientific). Proteins were denatured in NuPAGE LDS 4× sample buffer supplemented with reducing agents (Invitrogen). Typically, 10-20 μg of total protein was loaded per lane on a 4%-12% NuPAGE Bis-Tris gradient gel (Invitrogen) and analyzed by standard immunoblotting and imaged using Li-COR Odyssey CLx (LI-COR Biotechnology, Lincoln, NE). Primary antibodies used were: JAK1 (Cell Signaling #3332S), JAK2 (#3230S), JAK3 (#8827S), TYK2 (#9312S), GSPT1 (#14980S), CRBN (#71810S), IKZF1 (Santa Cruz Biotechnology, SC-398265) and ACBT (Santa Cruz Biotechnology, SC-47778).
For pharmacodynamic studies, after engraftment, mice with >50% hCD45 cells in peripheral blood were dosed with 10, 30 or 100 mg/kg i.p. of compound 7 for 2 daily doses. One hour after the second dose, mice were euthanized, and cells collected from bone marrow and spleen. For phosphoflow cytometry analysis, 0.75×10^6 bone marrow cells in 3 ml of medium were fixed by adding 1 ml of 10% formaldehyde and incubated at room temperature for 10 minutes. […]

**Q.** Which “JAK/GSPT1 degradation in vivo” value does the source give for `CCCn1cc(-c2nc(Nc3ccc(C(=O)NCCCCNc4cccc5c4C(=O)N(C4CCC(=O)NC4=O)C5=O)cc3)nc3[nH]ccc23)cn1` (stereo not shown) [Compound 7] here?
**A.** Its value is “near maximal at the 30 mg/kg dose”.
